{"source": "patent US11555212B2", "about": "“Process for the production of sulfated phenolic compounds using modified Escerichia coli” (CysBio ApS, priority 2016, dated 2023)", "type_in_all_cases": "cell-based", "key": {"[1]": {"target": "T1, SULT1A1 Canis lupus familiaris (Canis lupus familiaris, UniProt Q29476)", "T1 construct": "1, 3, 4, 5, and 6 were cloned amplified from liver tissue cDNA; expressed in transfected cells; host or cells: E. coli BL21(DE3)pLysS", "T1 sequence (Q29476 whole entry)": "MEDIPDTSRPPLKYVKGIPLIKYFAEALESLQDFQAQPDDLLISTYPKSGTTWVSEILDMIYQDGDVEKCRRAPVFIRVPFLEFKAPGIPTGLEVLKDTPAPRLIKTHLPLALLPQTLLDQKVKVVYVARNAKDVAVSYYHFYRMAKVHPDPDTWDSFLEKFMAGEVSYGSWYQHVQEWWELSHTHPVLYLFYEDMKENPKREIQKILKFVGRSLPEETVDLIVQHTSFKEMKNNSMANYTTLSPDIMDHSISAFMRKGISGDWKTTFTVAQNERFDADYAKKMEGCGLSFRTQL", "assay": "Percent conversion of substrates by E. coli expressing a sulfotransferase", "settings": "E. coli BL21(DE3)pLysS expressing SULT1A1 Canis lupus familiaris; M9; pHCA 100 μM, resveratrol 95 μM or kaempferol 87 μM; overnight 37° C.", "description": "(§1) The concentration of p-courmaric acid (pHCA) and zosteric acid in the supernatant was quantified by high performance liquid chromatography (HPLC) and compared to chemical standards. HPLC was done on a Thermo setup using a HS-F5 column and mobile phases: 5 mM ammonium formate pH 4.0 (A) and acetonitrile (B) at 1.5 mL min-1, using a gradient elution starting at 5% B. From 0.5 min after injection to 7 min, the fraction of B increased linearly from 5% to 60%, and between 9.5 min and 9.6 the fraction of B decreased back to 5%, and remaining there until 12 min. pHCA and zosteric acid were quantified by measuring absorbance at 277 nm.\n(§2) Different sulfotransferases were examined for their substrate specificities against three substrates. We tested the sulfotransferases mentioned in example 1, as well as additional ones. The genes encoding these were cloned as described in example 1 using the primers shown in the table below from cDNA libraries of the respective organisms, except for the SULT1A1 from rat (Rattus norvegicus) codon-optimized for E. coli (described above). The resulting vectors were transformed into BL21(DE3)pLysS.\n(§3) The resulting strains were grown in M9 medium containing either 100 μM pHCA, 95 μM resveratrol or 87 μM kaempferol. The cultures were grown overnight at 37° C., 300 rpm. The following day the supernatants were isolated and examined by HPLC as described in example 1."}, "[2]": {"test_system": "SULT1A1 Equus caballus", "assay": "Percent conversion of substrates by E. coli expressing a sulfotransferase", "settings": "E. coli BL21(DE3)pLysS expressing SULT1A1 Equus caballus; M9; pHCA 100 μM, resveratrol 95 μM or kaempferol 87 μM; overnight 37° C.", "description": "as §1, §2, §3"}, "[3]": {"target": "T2, SULT1A1 Rattus norvegicus (Rattus norvegicus, UniProt P17988)", "T2 construct": "1, 3, 4, 5, and 6 were cloned amplified from liver tissue cDNA; expressed in transfected cells", "T2 sequence (P17988 whole entry)": "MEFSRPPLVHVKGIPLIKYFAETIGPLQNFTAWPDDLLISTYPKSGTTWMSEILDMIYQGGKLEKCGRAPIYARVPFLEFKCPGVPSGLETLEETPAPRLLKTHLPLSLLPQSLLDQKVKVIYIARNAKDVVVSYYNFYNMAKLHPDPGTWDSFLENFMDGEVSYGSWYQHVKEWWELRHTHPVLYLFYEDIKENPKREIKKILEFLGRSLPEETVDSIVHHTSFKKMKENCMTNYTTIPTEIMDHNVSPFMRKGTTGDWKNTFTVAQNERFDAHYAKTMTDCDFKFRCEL", "assay": "Percent conversion of substrates by E. coli expressing a sulfotransferase", "settings": "M9, pHCA 100 μM, resveratrol 95 μM or kaempferol 87 μM, overnight 37° C.", "description": "as §1, §2, §3"}, "[4]": {"test_system": "SULT1C1 Gallus gallus domesticus", "assay": "Percent conversion of substrates by E. coli expressing a sulfotransferase", "settings": "E. coli BL21(DE3)pLysS expressing SULT1C1 Gallus gallus domesticus; M9; pHCA 100 μM, resveratrol 95 μM or kaempferol 87 μM; overnight 37° C.", "description": "as §1, §2, §3"}, "[5]": {"target": "T3, SULT1A1 rat (Rattus norvegicus, UniProt P17988)", "T3 construct": "expressed in transfected cells; host or cells: Saccharomyces cerevisiae CEN.PK102-5B (plasmids pCBJ283, pCBJ284)", "T3 sequence (P17988 whole entry)": "as above", "assay": "Titers of zosteric acid in Saccharomyces cerevisiae expressing a sulfotransferase", "settings": "S. cerevisiae CEN.PK102-5B, modified Delft medium, 10 mM p-coumaric acid, overnight 30° C.", "description": "as §1\nThe gene encoding aryl sulfotransferase SULT1A (Example 1) was cloned after a TEF1 promoter into an episomal plasmid with a 2-micron origin of replication as follows. The gene was amplified by PCR using primers CBJP633 and CBJP634. Alternatively, the gene was codon-optimized for E. coli and synthesized by GeneArt and amplified by primers CBJP635 and CBJP636. The TEF1 promoter (Jensen et al., 2014, FEMS Yeast Res 14: 238-248) was amplified by PCR using the primers PTEF1_fw and PTEF1_rv. Plasmid pCfB132 (Jensen et al., supra) was digested by restriction enzymes AsiSI and Nt.Bsml. […]"}}, "data": [{"compound": "O=C(O)/C=C/c1ccc(O)cc1", "note": "[pHCA, p-coumaric acid]", "values": [{"measurement": "Percent conversion of the substrate", "setting": "[1]", "result": 34, "unit": "%"}, {"measurement": "Percent conversion of the substrate", "setting": "[2]", "result": 21, "unit": "%"}, {"measurement": "Percent conversion of the substrate", "setting": "[3]; E. coli BL21(DE3)pLysS expressing SULT1A1 Rattus norvegicus (Codon-optimized for E. coli)", "result": 73, "unit": "%"}, {"measurement": "Percent conversion of the substrate", "setting": "[3]; E. coli BL21(DE3)pLysS expressing SULT1A1 Rattus norvegicus", "result": 93, "unit": "%"}, {"measurement": "Percent conversion of the substrate", "setting": "[4]", "result": 26, "unit": "%"}]}, {"compound": "O=C(O)/C=C/c1ccc(OS(=O)(=O)O)cc1", "note": "[Zosteric acid, zosteric acid]", "values": [{"measurement": "μM ZA (averages and standard deviations of replicate experiments)", "setting": "[5]; SULT1A1 rat (codon optimized for E. coli)", "result": "46.2 ± 3.5", "unit": "µM"}, {"measurement": "μM ZA (averages and standard deviations of replicate experiments)", "setting": "[5]; SULT1A1 rat (native)", "result": "37.8 ± 5.7", "unit": "µM"}]}]}
